Among the data in BindingDB's records for doi:10.1021/cb300671s (National Cancer Institute-Bethesda, 2013) are Kd values, retold here.

The structures appear in SMILES notation.

The target in test [1] is Protein kinase C alpha type (Homo sapiens, UniProt P17252).
Test [2] deals with Protein kinase C beta type (Homo sapiens, UniProt P05771).
Test [3] deals with Protein kinase C delta type (Homo sapiens, UniProt Q05655).
Test [4] deals with T1, Protein kinase C epsilon type (Homo sapiens, UniProt Q02156).
T1 sequence (Q02156 whole entry): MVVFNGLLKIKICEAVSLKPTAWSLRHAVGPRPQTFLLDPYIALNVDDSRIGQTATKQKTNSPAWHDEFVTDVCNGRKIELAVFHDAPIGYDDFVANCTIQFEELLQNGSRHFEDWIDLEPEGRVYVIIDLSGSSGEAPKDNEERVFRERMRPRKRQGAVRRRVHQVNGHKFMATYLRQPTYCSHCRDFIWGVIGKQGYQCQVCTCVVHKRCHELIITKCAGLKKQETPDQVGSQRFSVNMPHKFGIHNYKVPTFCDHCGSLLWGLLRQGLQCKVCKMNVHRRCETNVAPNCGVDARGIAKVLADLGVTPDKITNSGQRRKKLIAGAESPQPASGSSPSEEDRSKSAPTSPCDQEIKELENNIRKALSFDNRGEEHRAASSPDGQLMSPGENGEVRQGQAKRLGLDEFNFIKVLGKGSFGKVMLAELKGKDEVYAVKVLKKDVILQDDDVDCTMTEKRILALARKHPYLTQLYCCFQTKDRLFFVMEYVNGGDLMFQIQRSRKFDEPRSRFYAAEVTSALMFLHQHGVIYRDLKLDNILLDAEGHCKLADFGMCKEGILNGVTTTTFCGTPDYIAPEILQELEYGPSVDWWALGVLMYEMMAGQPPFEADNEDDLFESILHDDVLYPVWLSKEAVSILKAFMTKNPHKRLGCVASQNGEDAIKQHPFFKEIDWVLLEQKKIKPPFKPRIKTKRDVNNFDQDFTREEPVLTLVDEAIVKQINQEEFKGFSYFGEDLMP

The target of test [5] is Protein kinase C (Mus musculus, UniProt Q4VA93).

Chain of Protein kinase C beta type (P05771 whole entry): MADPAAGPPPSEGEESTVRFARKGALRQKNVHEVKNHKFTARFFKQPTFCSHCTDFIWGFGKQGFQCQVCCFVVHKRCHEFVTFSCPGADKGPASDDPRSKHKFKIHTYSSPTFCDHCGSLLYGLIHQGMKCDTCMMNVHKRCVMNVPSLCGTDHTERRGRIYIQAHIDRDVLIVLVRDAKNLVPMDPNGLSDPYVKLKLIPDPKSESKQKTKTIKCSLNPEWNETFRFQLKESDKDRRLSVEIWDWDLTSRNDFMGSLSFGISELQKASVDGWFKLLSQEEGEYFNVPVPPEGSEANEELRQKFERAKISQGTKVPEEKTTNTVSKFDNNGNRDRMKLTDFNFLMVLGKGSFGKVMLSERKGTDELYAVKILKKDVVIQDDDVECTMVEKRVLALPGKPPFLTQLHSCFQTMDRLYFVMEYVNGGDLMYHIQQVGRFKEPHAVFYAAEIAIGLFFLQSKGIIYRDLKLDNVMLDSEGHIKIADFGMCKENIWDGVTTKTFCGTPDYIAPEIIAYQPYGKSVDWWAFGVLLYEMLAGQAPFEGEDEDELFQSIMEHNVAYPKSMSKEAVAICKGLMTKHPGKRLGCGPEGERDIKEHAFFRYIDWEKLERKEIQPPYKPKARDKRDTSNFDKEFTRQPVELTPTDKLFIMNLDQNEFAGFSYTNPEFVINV
Chain of Protein kinase C delta type (Q05655 whole entry): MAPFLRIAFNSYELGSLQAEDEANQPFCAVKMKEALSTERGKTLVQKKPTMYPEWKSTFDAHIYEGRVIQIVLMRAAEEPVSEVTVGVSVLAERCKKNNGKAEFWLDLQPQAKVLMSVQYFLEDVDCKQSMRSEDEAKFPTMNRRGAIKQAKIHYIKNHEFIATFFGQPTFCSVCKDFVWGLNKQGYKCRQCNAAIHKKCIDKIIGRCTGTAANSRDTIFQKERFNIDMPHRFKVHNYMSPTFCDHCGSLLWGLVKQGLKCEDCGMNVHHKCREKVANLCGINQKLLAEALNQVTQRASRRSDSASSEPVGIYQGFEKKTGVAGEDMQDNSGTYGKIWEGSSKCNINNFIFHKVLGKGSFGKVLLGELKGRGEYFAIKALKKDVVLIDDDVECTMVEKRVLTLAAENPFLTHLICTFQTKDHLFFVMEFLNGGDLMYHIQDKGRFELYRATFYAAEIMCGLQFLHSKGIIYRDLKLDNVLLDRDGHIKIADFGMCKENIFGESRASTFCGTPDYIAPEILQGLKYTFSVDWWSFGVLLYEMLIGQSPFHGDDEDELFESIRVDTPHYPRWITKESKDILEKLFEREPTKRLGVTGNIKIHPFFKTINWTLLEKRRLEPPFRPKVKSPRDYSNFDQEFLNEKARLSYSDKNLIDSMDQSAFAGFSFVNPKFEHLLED

Turning to `COC(=O)/C=C1/C[C@H]2C[C@]3(O)O[C@H](C[C@@H](O)CC(=O)O[C@@H]([C@@H](C)O)C[C@@H]4C/C(=C\C(=O)OC)[C@H](OC(C)=O)[C@@](O)(O4)C(C)(C)/C=C/[C@@H](C1)O2)C[C@H](OC(C)=O)C3(C)C` [Bryostatin], the Kd (usually the concentration at which binding is half-saturated) in test [1] is 440 pM; in test [2] it was 320 pM; in test [3], 210 pM; in test [4], 160 pM; in test [5], 260 pM.

As to `CCC/C=C/C=C/C(=O)O[C@H]1/C(=C/C(=O)OC)C[C@H]2C[C@H]([C@@H](C)O)OC(=O)C[C@H](O)C[C@@H]3C[C@H](OC(C)=O)C(C)(C)[C@](O)(C[C@@H]4C/C(=C/C(=O)OC)C[C@H](/C=C/C(C)(C)[C@]1(O)O2)O4)O3`, the dissociation constant (Kd) in test [1] stood at 730 pM; in test [2], 420 pM; in test [4] it was 240 pM; in test [5], 480 pM.

As to `CCCC(=O)O[C@@H]1[C@@H](C)[C@@]2(O)[C@@H](C=C(CO)C[C@@]3(O)C(=O)C(C)=C[C@@H]23)[C@H]2C(C)(C)[C@]12OC(=O)CCC` [Butyric acid (1aS,1bS,4aS,7aS,8R,9S,9aR)-9-butyryloxy-4a,7b-dihydroxy-3-((R)-hydroxymethyl)-1,1,6,8-tetramethyl-5-oxo-1,1a,1b,4,4a,5,7a,7b,8,9-decahydro-cyclopropa[3,4]benzo[1,2-e]azulen-9a-yl ester], the affinity in test [5], expressed as Kd, was 300 pM.
